According to patent EP3180003B1 (The Regents of the University of California, priority 2014, dated 2016):
Like-named read-outs stand apart in the source and are kept apart here.

Key:
PKCε [1] = target: T1, PKCε (Homo sapiens, UniProt Q02156); assay: FRET based LANCE Ultra kinase assay; assay type: biochemical
T1 sequence (Q02156 1-737): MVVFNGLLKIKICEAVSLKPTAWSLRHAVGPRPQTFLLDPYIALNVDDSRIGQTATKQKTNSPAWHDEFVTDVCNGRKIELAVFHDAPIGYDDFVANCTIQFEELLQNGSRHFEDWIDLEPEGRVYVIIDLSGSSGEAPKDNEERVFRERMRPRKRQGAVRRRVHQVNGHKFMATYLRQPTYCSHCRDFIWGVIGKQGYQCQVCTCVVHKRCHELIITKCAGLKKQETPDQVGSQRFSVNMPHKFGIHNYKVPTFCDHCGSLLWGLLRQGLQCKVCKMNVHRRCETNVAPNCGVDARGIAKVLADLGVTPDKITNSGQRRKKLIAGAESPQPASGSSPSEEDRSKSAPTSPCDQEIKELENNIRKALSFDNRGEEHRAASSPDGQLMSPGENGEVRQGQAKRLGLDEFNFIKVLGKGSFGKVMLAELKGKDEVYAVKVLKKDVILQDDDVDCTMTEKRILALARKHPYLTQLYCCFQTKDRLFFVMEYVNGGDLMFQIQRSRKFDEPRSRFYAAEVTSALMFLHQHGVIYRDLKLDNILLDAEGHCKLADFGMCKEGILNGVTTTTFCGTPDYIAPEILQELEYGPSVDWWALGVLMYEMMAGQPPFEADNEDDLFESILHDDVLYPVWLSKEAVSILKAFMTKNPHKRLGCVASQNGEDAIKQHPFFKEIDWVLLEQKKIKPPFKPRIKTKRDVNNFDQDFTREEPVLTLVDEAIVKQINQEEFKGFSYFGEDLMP
Description: Certain compounds of this invention were tested in the captioned assay.

C57BL/6 mice = assay: Ethanol-induced loss of righting reflex (LORR) in vivo; details: 10 mg/kg i.p.
Description: Compound 1 was administered (10 mg/kg) i.p. to C57BL/6 mice, which were administered 20 min later 3.6 g/kg ethanol i.p. to induce loss of righting. […] These findings indicate that this class of compounds can cross the blood-brain barrier and act as a PKCε inhibitor, and prolong the duration of the LORR in the treated animals. Such increased signs of ethanol intoxication are contemplated to be aversive and to limit ethanol self-administration.

PKCε [2] = target: T1, PKCε; assay: Inhibition of PKCε (Example 4); assay type: biochemical
PKCζ = target: T2, PKCζ (Homo sapiens, UniProt Q05513); assay: Inhibition of atypical PKCζ (Example 4); assay type: biochemical; details: for activity against atypical PKCζ: at 10 µM, result in words
T2 construct: purchased Invitrogen (Carlsbad, CA, USA)
T2 sequence (Q05513 1-592): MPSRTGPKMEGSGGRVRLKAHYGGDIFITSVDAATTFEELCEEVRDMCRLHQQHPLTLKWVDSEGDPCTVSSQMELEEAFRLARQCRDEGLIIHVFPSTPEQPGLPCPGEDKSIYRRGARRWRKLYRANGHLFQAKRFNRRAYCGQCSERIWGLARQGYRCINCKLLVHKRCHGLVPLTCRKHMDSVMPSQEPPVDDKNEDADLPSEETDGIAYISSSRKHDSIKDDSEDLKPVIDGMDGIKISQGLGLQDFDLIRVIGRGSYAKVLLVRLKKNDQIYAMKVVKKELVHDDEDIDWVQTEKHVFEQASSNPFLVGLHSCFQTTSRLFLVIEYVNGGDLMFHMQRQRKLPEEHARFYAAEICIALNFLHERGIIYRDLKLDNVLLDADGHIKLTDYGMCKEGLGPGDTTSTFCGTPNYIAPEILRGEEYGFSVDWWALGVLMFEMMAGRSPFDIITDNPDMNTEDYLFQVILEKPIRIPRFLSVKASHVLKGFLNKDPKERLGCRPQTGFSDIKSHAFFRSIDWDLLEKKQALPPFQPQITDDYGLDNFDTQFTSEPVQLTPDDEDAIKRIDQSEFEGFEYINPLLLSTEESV
Description: (§1) For example, to measure inhibition of conventional PKCγ, novel PKCδ, and atypical PKCζ, the same kinase assay disclosed above for PKCε can be used with recombinant human PKCγ, PKCδ, or PKCζ purchased from Invitrogen (Carlsbad, CA, USA) in place of PKCs, with 0.4 mM CaCl2 assay buffer for PKCγ.
(§2) The specificity of the compounds disclosed herein for inhibition of PKCε can be determined by examining their ability to inhibit ROCK1 and selected members of each PKC subfamily according to the protocols of the counter-screening assay for selectivity disclosed herein. This assay can be performed according to the biochemical assay for PKCε described above with some modifications. Rather than varying the concentrations of the inhibitors, only 10µM of each compound can be used.

PKCθ = target: T3, PKCθ (Homo sapiens, UniProt Q04759); assay: Inhibition of novel PKCθ (Example 4); assay type: biochemical
T3 construct: purchased Invitrogen P2996
Text: Inhibition of PKC theta activity can be measured using the same primary phosphotransferase assay for PKCε except one substitutes recombinant human PKC theta purchased from Invitrogen for PKCε. PKC theta can also be assayed with a fluorescence polarization (FP) assay using the commercially available Protein Kinase C Assay Kit, Red, from Invitrogen (Product ID No P2941), essentially in accordance with the protocol supplied by the manufacturer. The substrate used is […] (Mw 1561), which can be obtained from Invitrogen (Product ID No P2760). The isozyme PKC theta can be obtained from Invitrogen (Product ID No P2996).
as §2

PKCε [3] = target: T1, PKCε; assay: Cell-based assay for PKCε modulation of GABAA receptors (γ2 S327 phosphorylation, ELISA format); details: HEK293 cell line expressing α1β2γ2 GABAA receptors and over-expressing PKCε; anti-γ2S(P)327 ELISA
Description: PKCε inhibition can also be measured by assaying benzodiazepine modulation of GABAA receptors in intact cells. PKCε decreases benzodiazepine potency at GABAA receptors by phosphorylating S327 of GABAA y2 subunits. The GABAA cell-based assay uses a HEK293 cell line that expresses α1β2γ2 GABAA receptors and over-expresses PKCε. […] This 6-fold difference in benzodiazepine potency can be detected without addition of a PKC activator. The assay is performed using an anti-phospho antibody that recognizes γ2S(P)327 in an ELISA format to generate 8 point dose-response curves for each compound. Background values, detected from wells in which no primary antibody was added, are subtracted from sample values. Maximal phosphorylation (positive control) is detected in reactions containing phorbol ester and lacking an inhibitor.

PKCδ = target: T4, PKCδ (Homo sapiens, UniProt Q05655); assay: Inhibition of novel PKCδ (Example 4); assay type: biochemical
T4 construct: purchased Invitrogen (Carlsbad, CA, USA)
Description: as §1, §2

PKCγ = target: T5, PKCγ (Homo sapiens, UniProt P05129); assay: Inhibition of conventional PKCγ (Example 4); assay type: biochemical; details: for inhibition of conventional PKCγ: at 10 µM, result in words
T5 construct: purchased Invitrogen (Carlsbad, CA, USA)
Description: as §1, §2

PKCε [4] = target: T1, PKCε; assay: Primary PKCε phosphotransferase assay; assay type: biochemical; set-up: FLAG; made in house; host or cells: COS-7 cells; details: log of molar IC50
Description: The assay mixture can contain 2 ng FLAG-tagged human PKCε expressed and purified from COS-7 cells in 25 µl kinase buffer containing 20 mM Tris-HCI, pH 7.4, 0.25 mM EGTA, 0.1 mg/ml BSA, 0.72% TritonX-100, 10 mM MgCl2, 0.48 µg/µl L-α-phosphatidylserine (PS) and 0.107 µg/µl sn-1,2-dioleoylglecerol (DG) (Avanti Polar Lipids, Alabaster, AL, USA), 2 µM K(Biotin)-[…], 2.5 µM ATP and 0.05 µCi [^32γ-P]ATP. After incubation at 27 °C for 90 min, the reaction is terminated by adding 12.5 µl of 7.5 M of guanidine hydrochloride. Eight microliters of reaction mixture is spotted onto a pre-cut streptavidin-coated SAM Biotin Capture membrane. […] The membrane is then air dried at room temperature for 60 min and radioactivity remaining on the membrane can be measured by liquid scintillation counting. Specific PKCε activity can then be calculated as the difference between cpms detected in the presence and absence of lipids (PS and DG). Maximal PKCε activity (positive control) can be detected in reactions lacking an inhibitor. […]
IC50 values can be calculated from normalized dose-response curves by nonlinear regression analysis.
The ability of the compounds disclosed herein to inhibit PKCε can be assessed using the primary PKCε assay described above using the biotinylated substrate […]. […]

[5] = log of molar IC50, read-out: Log IC50 (converted)

T4 sequence (Q05655 whole entry): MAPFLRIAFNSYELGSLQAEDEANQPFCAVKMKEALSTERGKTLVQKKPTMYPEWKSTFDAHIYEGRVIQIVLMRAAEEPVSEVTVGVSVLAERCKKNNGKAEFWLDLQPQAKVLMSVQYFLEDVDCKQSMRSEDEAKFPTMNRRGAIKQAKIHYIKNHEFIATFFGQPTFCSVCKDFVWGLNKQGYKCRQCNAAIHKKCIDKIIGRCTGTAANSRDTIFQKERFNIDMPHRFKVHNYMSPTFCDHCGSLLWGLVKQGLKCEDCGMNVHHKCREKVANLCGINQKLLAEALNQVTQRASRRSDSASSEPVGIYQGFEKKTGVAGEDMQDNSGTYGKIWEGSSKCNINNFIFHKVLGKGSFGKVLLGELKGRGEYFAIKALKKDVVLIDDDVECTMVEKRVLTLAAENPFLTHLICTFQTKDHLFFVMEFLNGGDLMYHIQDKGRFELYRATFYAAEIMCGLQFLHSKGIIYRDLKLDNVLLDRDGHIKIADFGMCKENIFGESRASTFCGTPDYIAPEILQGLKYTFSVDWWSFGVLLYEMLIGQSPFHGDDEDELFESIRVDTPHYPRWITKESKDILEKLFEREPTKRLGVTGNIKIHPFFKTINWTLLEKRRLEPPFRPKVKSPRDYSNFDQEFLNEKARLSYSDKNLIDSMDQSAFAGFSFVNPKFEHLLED
T3 sequence (Q04759 whole entry): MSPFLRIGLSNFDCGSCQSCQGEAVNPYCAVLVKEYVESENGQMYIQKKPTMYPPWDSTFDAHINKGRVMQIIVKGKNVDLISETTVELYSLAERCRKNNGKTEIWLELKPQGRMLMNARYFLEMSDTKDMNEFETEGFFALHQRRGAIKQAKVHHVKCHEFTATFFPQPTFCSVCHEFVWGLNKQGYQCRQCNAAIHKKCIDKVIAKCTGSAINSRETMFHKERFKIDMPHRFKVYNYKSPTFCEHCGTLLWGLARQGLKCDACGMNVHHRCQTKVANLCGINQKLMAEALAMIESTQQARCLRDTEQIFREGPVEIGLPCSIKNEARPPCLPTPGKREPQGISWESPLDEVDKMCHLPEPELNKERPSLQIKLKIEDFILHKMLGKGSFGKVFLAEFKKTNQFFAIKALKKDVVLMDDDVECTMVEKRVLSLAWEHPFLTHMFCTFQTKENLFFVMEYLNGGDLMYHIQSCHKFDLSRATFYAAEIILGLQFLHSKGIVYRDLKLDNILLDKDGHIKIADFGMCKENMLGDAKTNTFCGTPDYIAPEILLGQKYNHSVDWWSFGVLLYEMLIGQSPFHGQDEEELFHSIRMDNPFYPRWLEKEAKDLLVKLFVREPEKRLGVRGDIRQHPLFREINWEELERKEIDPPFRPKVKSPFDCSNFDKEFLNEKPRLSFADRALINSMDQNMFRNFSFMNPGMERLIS

NC(C(=O)NC1COc2ccccc21)[C@H]1CC[C@H](C(=O)Nc2ccncc2)CC1 (stereo partly drawn) [Compound 10]
Log IC50 (PKCε [1]; log of molar IC50): -5.695 | IC50 (PKCε [1]; read-out: IC50): 2020 nM

NC(CNC(=O)C1CCc2cc(Cl)ccc21)[C@H]1CC[C@H](C(=O)Nc2ccncc2)CC1 (stereo partly drawn) [Compound 8]
Log IC50 (PKCε [1]; log of molar IC50): -6.445 | IC50 (PKCε [1]; read-out: IC50): 359 nM

NC(CNC(=O)C1(c2ccc(Cl)cc2)CC1)[C@H]1CC[C@H](C(=O)Nc2ccncc2)CC1 (relative stereo) [Compound 1, trans-4-[1-Amino-2-[[[1-(4-chlorophenyl)cyclopropyl]carbonyl]amino]ethyl]-N-4-pyridinyl-cyclohexylcarboxamide]
increase of LORR duration (C57BL/6 mice; 20 min before 3.6 g/kg ethanol i.p., versus vehicle-treated mice, p = 0.036): 45% | LORR duration (C57BL/6 mice; drug-treated mice (n=10), 3.6 g/kg ethanol i.p., vehicle 31.4 ± 4.9 (n=8)): 45.7 ± 4.0 | Ki (PKCε [2]; PKCε, read-out: Ki): < 20 nM | Ki (PKCε [2]; n=3, read-out: PKCε Ki): 17 nM | IC50 (PKCε [2]; read-out: PKCε Log IC50 (converted)): 55 nM | inhibition at 10 µM (PKCζ; 10 µM inhibitor, n=3, read-out: Percent inhibition of PKC activity, Atypical PKCζ): 55.9 ± 3.8% | IC50 (PKCε [1]; read-out: IC50): 56.6 nM | inhibition at 10 µM (PKCθ; 10 µM inhibitor, n=3, read-out: Percent inhibition of PKC activity, Novel PKCθ): 96.9 ± 1.1% | Ki (PKCθ; n=3): 91.7 nM | IC50 (PKCθ; read-out: PKCθ Log IC50 (converted)): 372 nM | IC50 (PKCε [3]): 8.9 nM | inhibition at 10 µM (PKCδ; 10 µM inhibitor, n=3, read-out: Percent inhibition of PKC activity, Novel PKCδ): 96.3 ± 0.7% | Ki (PKCδ; n=3): 173 nM | IC50 (PKCδ; read-out: PKCδ Log IC50 (converted)): 708 nM | inhibition at 10 µM (PKCγ; 10 µM inhibitor, n=3, read-out: Percent inhibition of PKC activity, Conventional PKCγ): 16.7 ± 3.8% | inhibition of conventional PKCγ (PKCγ): inhibited | IC50 (PKCε [4]): 131 nM

CC(C)(C(=O)NCC(N)[C@H]1CC[C@H](C(=O)Nc2ccncc2)CC1)c1cccs1 (stereo partly drawn) [Compound 7]
Log IC50 (PKCε [1]; log of molar IC50): -6.553 | IC50 (PKCε [1]; read-out: IC50): 280 nM

NC(CNC(=O)C1(c2ccc(F)cc2)CC1)[C@H]1CC[C@H](C(=O)Nc2ccncc2)CC1 (stereo partly drawn) [Compound 3]
Log IC50 (PKCε [1]; log of molar IC50): -6.835 | IC50 (PKCε [1]; read-out: IC50): 146 nM

NC(C(=O)NCc1ccc(F)cc1)[C@H]1CC[C@H](C(=O)Nc2ccncc2)CC1 (stereo partly drawn) [Compound 12]
Log IC50 (PKCε [1]; log of molar IC50): -5.625 | IC50 (PKCε [1]; read-out: IC50): 2370 nM

CC(C)(C(=O)NCC(N)[C@H]1CC[C@H](C(=O)Nc2ccncc2)CC1)c1ccc(Cl)cc1 (stereo partly drawn) [Compound 9]
activity against atypical PKCζ (PKCζ): almost no activity | Log IC50 (PKCε [1]; log of molar IC50): -7.398 | IC50 (PKCε [1]; read-out: IC50): 40 nM | inhibition of conventional PKCγ (PKCγ): inhibited

NC(CNC(=O)C1(c2ccc(F)cc2)CCCC1)[C@H]1CC[C@H](C(=O)Nc2ccncc2)CC1 (stereo partly drawn) [Compound 5]
PKCε Log IC50(M) (PKCε [2]; log IC50 ± SE, n=3): -7.37 ± 0.03 M | activity against atypical PKCζ (PKCζ): almost no activity | Log IC50 (PKCε [1]; log of molar IC50): -7.370 | inhibition of conventional PKCγ (PKCγ): inhibited

NC(CNC(=O)C1(c2ccc(F)c(F)c2)CC1)[C@H]1CC[C@H](C(=O)Nc2ccncc2)CC1 (stereo partly drawn) [Compound 6]
Log IC50 (PKCε [1]; log of molar IC50): -7.282

NC(C(=O)NCC1(c2ccc(Cl)cc2)CC1)[C@H]1CC[C@H](C(=O)Nc2ccncc2)CC1 (stereo partly drawn) [Compound 2]
IC50 (PKCε [1]; [5]): 3240 nM | IC50 (PKCε [4]): 1690 nM

NC(C(=O)N[C@@H]1CCCc2ccccc21)[C@H]1CC[C@H](C(=O)Nc2ccncc2)CC1 (stereo partly drawn) [Compound 11]
IC50 (PKCε [1]; [5]): 3090 nM | IC50 (PKCε [1]; read-out: IC50): 3090 nM

NC(CNC(=O)C1(c2ccc(F)cc2Cl)CCCC1)[C@H]1CC[C@H](C(=O)Nc2ccncc2)CC1 (stereo partly drawn) [Compound 4]
Log IC50 (PKCε [1]; log of molar IC50): -6.917 | IC50 (PKCε [1]; read-out: IC50): 121 nM
